In ChEMBL document CHEMBL1154345, “Discovery of tricyclic 5,6-dihydro-1H-pyridin-2-ones as novel, potent, and orally bioavailable inhibitors of HCV NS5B polymerase” (Bioorg Med Chem Lett, 2009):

Assays:
in vitro [1] = settings: human
Description: Metabolic stability in human liver microsomes assessed as compound remaining after 60 mins at 1 uM

Hepatitis C virus [2] = assay: microbe, parasite or virus in culture; format: functional, organism-based, Hepacivirus hominis, genotype 1b, Huh-luc/neo-ET; settings: Hepatitis C virus, genotype 1b, Huh-luc/neo-ET, 72 h
Description: Antiviral activity against HCV-1b infected human Huh-luc/neo-ET replicon cells after 72 hrs by luciferase based replicon assay

[3] = Cytotoxicity against human HuH7 cells assessed as GAPDH release; format: cell-based, Huh-7
in vitro [4] = settings: human, t1/2
Hepatitis C virus [5] = assay: microbe, parasite or virus in culture; format: functional, organism-based, Hepacivirus hominis, subtype 1a, Huh-lunet; settings: Hepatitis C virus, subtype 1a, Huh-lunet, 96 h
Description: Antiviral activity against HCV-1a infected in human Huh-lunet cells after 4 days by luciferase based replicon assay

in vitro [6] = settings: rhesus monkey
Description: Metabolic stability in monkey liver microsomes assessed as half life at 5 uM

[7] = Oral bioavailability in cynomolgus monkey at 1 mg/kg; format: ADME, organism-based, Macaca fascicularis; settings: in vivo
[8] = Clearance in cynomolgus monkey at 1 mg/kg, iv; format: ADME, organism-based, Macaca fascicularis; design: dose 1 mg/kg, route intravenous; settings: in vivo
Cynomolgus monkey [9] = settings: in vivo, iv, 1 mg/kg
Cynomolgus monkey [10] = settings: in vivo, po, 1 mg/kg
physchem = settings: aqueous medium, pH 7.5
Description: Aqueous solubility at pH 7.5

in vitro [11] = settings: rhesus monkey, microsomes, Stability
Description: Metabolic stability in monkey liver microsomes assessed as compound remaining after 60 mins at 5 uM

Structure (SMILES)	remaining at 1 h, 1 µM (in vitro [1]; microsomes) [%]	EC50 (Hepatitis C virus [2]) [µM]	half-life at 1 µM (in vitro [4]; microsomes) [h]	EC50 (Hepatitis C virus [5]) [µM]	remaining at 1 h, 1 µM (in vitro [1]; liver microsomes) [%]	half-life at 1 µM (in vitro [4]; liver microsomes) [h]	further results
CS(=O)(=O)Nc1ccc2c(c1)S(=O)(=O)N=C(C1=C(O)[C@@H]3[C@@H]4CC[C@@H](C4)[C@@H]3N(Cc3ccc(F)cc3)C1=O)N2	85	0.007	> 1	0.065			CC50 [3]: > 1 µM
COc1cc(CN2C(=O)C(C3=NS(=O)(=O)c4cc(NS(C)(=O)=O)ccc4N3)=C(O)[C@@H]3C4CCC(CC4)[C@@H]32)ccc1F		0.002		0.021	67	> 1	
CS(=O)(=O)Nc1ccc2c(c1)S(=O)(=O)N=C(C1=C(O)[C@@H]3C4CCC(CC4)[C@@H]3N(Cc3ccc(F)c(F)c3F)C1=O)N2		0.008		0.15	100	> 1	
CS(=O)(=O)Nc1ccc2c(c1)S(=O)(=O)N=C(C1=C(O)[C@@H]3C4CCC(CC4)[C@@H]3N(Cc3ccc(F)c(F)c3)C1=O)N2		0.002		0.023	81	> 1	
CS(=O)(=O)Nc1ccc2c(c1)S(=O)(=O)N=C(C1=C(O)[C@@H]3C4CCC(CC4)[C@@H]3N(Cc3ccc(F)c(Cl)c3)C1=O)N2		0.002		0.019	100	> 1	
CS(=O)(=O)Nc1ccc2c(c1)S(=O)(=O)N=C(C1=C(O)[C@@H]3C4CCC(CC4)[C@@H]3N(Cc3ccc(F)cc3F)C1=O)N2		0.002		0.28	100	> 1	
Cc1cc(CN2C(=O)C(C3=NS(=O)(=O)c4cc(NS(C)(=O)=O)ccc4N3)=C(O)[C@@H]3C4CCC(CC4)[C@@H]32)ccc1F		0.002		0.016	81	> 1	
CS(=O)(=O)Nc1ccc2c(c1)S(=O)(=O)N=C(C1=C(O)[C@@H]3C4CCC(CC4)[C@@H]3N(Cc3ccc(F)cc3Cl)C1=O)N2		0.001		0.025	100	> 1	
COc1cccc(CN2C(=O)C(C3=NS(=O)(=O)c4cc(NS(C)(=O)=O)ccc4N3)=C(O)[C@@H]3C4CCC(CC4)[C@@H]32)c1		0.005		0.27	50	> 1	
CS(=O)(=O)Nc1ccc2c(c1)S(=O)(=O)N=C(C1=C(O)[C@@H]3C4CCC(CC4)[C@@H]3N(Cc3ccccc3Cl)C1=O)N2		0.017		0.66	100	> 1	
CS(=O)(=O)Nc1ccc2c(c1)S(=O)(=O)N=C(C1=C(O)[C@@H]3C4CCC(CC4)[C@@H]3N(Cc3cccc(F)c3)C1=O)N2	88	0.004	> 1	0.098			
CS(=O)(=O)Nc1ccc2c(c1)S(=O)(=O)N=C(C1=C(O)[C@@H]3C4CCC(CC4)[C@@H]3N(Cc3ccc(Cl)cc3)C1=O)N2		0.031		0.25	100	> 1	
CS(=O)(=O)Nc1ccc2c(c1)S(=O)(=O)N=C(C1=C(O)[C@@H]3[C@@H]4CC[C@@H](C4)[C@@H]3N(Cc3ccc(F)c(Cl)c3)C1=O)N2		0.004		0.2	100	> 1	
Cc1cc(CN2C(=O)C(C3=Nc4ccc(NS(C)(=O)=O)cc4S(=O)(=O)N3)=C(O)[C@@H]3[C@@H]4CC[C@@H](C4)[C@@H]32)ccc1F		0.009		0.087	65	> 1	
CS(=O)(=O)Nc1ccc2c(c1)S(=O)(=O)NC(C1=C(O)[C@@H]3[C@@H]4CC[C@@H](C4)[C@@H]3N(Cc3ccc(F)c(F)c3)C1=O)=N2		0.013		0.11	97	> 1	
CS(=O)(=O)Nc1ccc2c(c1)S(=O)(=O)NC(C1=C(O)[C@@H]3[C@@H]4CC[C@@H](C4)[C@@H]3N(Cc3ccccc3)C1=O)=N2		0.01		0.34	90	> 1	
CS(=O)(=O)Nc1ccc2c(c1)S(=O)(=O)NC(C1=C(O)[C@@H]3[C@@H]4CC[C@@H](C4)[C@@H]3N(Cc3cccc(F)c3)C1=O)=N2	96	0.022	> 1	0.29			
CS(=O)(=O)Nc1ccc2c(c1)S(=O)(=O)N=C(C1=C(O)[C@@H]3[C@H]4CC[C@H](C4)[C@@H]3N(Cc3ccc(F)c(F)c3F)C1=O)N2		0.015		0.26	100	> 1	

Structure (SMILES)	remaining at 1 h, 1 µM (in vitro [1]; microsomes) [%]	EC50 (Hepatitis C virus [2]) [µM]	half-life at 1 µM (in vitro [4]; microsomes) [h]	EC50 (Hepatitis C virus [5]) [µM]	remaining at 1 h, 1 µM (in vitro [1]; liver microsomes) [%]	half-life at 1 µM (in vitro [4]; liver microsomes) [h]	further results
CS(=O)(=O)Nc1ccc2c(c1)S(=O)(=O)N=C(C1=C(O)[C@@H]3[C@H]4CC[C@H](C4)[C@@H]3N(Cc3ccc(F)c(Cl)c3)C1=O)N2		0.01		0.032	87	> 1	
COc1cc(CN2C(=O)C(C3=NS(=O)(=O)c4cc(NS(C)(=O)=O)ccc4N3)=C(O)[C@@H]3[C@H]4CC[C@H](C4)[C@@H]32)ccc1F	66	0.01	> 1	0.046			
CS(=O)(=O)Nc1ccc2c(c1)S(=O)(=O)N=C(C1=C(O)[C@@H]3[C@H]4CC[C@H](C4)[C@@H]3N(Cc3ccc(F)cc3F)C1=O)N2	100	0.01	> 1	0.29			
Cc1cc(CN2C(=O)C(C3=NS(=O)(=O)c4cc(NS(C)(=O)=O)ccc4N3)=C(O)[C@@H]3[C@H]4CC[C@H](C4)[C@@H]32)ccc1F		0.006		0.034	70	> 1	half-life at 5 µM (in vitro [6]; liver microsomes): 0.817 h; bioavailability [7]: 35%; clearance [8]: 0.67 mL/min/kg; AUC (Cynomolgus monkey [9]): 25000 ng·h/mL; AUC (Cynomolgus monkey [10]): 8780 ng·h/mL
CS(=O)(=O)Nc1ccc2c(c1)S(=O)(=O)N=C(C1=C(O)[C@@H]3[C@H]4CC[C@H](C4)[C@@H]3N(Cc3ccc(F)cc3Cl)C1=O)N2	98	0.005	> 1	0.033			
CS(=O)(=O)Nc1ccc2c(c1)S(=O)(=O)N=C(C1=C(O)[C@@H]3[C@H]4CC[C@H](C4)[C@@H]3N(Cc3cccc(F)c3)C1=O)N2	85	0.01	> 1	0.33			
CS(=O)(=O)Nc1ccc2c(c1)S(=O)(=O)N=C(C1=C(O)[C@@H]3[C@H]4CC[C@H](C4)[C@@H]3N(Cc3ccc(Cl)cc3)C1=O)N2	84	0.203	> 1	0.76			
CS(=O)(=O)Nc1ccc2c(c1)S(=O)(=O)N=C(C1=C(O)[C@@H]3C4CCC(CC4)[C@@H]3N(Cc3ccc(F)cc3)C1=O)N2	86	0.0008	> 1	0.006			CC50 [3]: > 1 µM
CS(=O)(=O)Nc1ccc2c(c1)S(=O)(=O)N=C(C1=C(O)[C@@H]3C4CCC(CC4)[C@@H]3N(CC3CCCCC3)C1=O)N2		0.011	0.833	0.055			
CS(=O)(=O)Nc1ccc2c(c1)S(=O)(=O)N=C(C1=C(O)[C@@H]3C4CCC(CC4)[C@@H]3N(CC(F)(F)F)C1=O)N2		0.004	0.1	0.06			
CS(=O)(=O)Nc1ccc2c(c1)S(=O)(=O)N=C(C1=C(O)[C@@H]3C4CCC(CC4)[C@@H]3N(Cc3cccs3)C1=O)N2		0.006		0.12		0.85	
CS(=O)(=O)Nc1ccc2c(c1)S(=O)(=O)N=C(C1=C(O)[C@@H]3[C@H]4CC[C@H](C4)[C@@H]3N(Cc3cccs3)C1=O)N2	81	0.018	> 1	0.066			
CS(=O)(=O)Nc1ccc2c(c1)S(=O)(=O)N=C(C1=C(O)[C@@H]3[C@@H]4CC[C@@H](C4)[C@@H]3N(Cc3cccs3)C1=O)N2	63	0.027	> 1	0.82			
CS(=O)(=O)Nc1ccc2c(c1)S(=O)(=O)N=C(C1=C(O)[C@@H]3C4CCC(CC4)[C@@H]3N(Cc3ccccc3)C1=O)N2		0.001		0.055	82	> 1	
CS(=O)(=O)Nc1ccc2c(c1)S(=O)(=O)NC(C1=C(O)[C@@H]3CCC[C@@H]3N(Cc3ccc(F)cc3)C1=O)=N2	85	0.023	> 1	0.55			solubility (physchem): > 100 µM; CC50 [3]: > 100 µM; half-life at 5 µM (in vitro [6]; microsomes): > 1 h; remaining at 1 h, 5 µM (in vitro [11]): 100%
CS(=O)(=O)Nc1ccc2c(c1)S(=O)(=O)N=C(C1=C(O)C3CC=CCC3N(Cc3ccc(F)cc3)C1=O)N2 (racemic)		0.007		0.081	87	> 1	CC50 [3]: > 1 µM
CS(=O)(=O)Nc1ccc2c(c1)S(=O)(=O)N=C(C1=C(O)[C@@H]3[C@H]4CC[C@H](C4)[C@@H]3N(Cc3ccc(F)cc3)C1=O)N2 [SETROBUVIR]	75	0.003	> 1	0.018			CC50 [3]: > 100 µM; half-life at 5 µM (in vitro [6]; microsomes): > 1 h; bioavailability [7]: 52%; clearance [8]: 0.18 mL/min/kg; AUC (Cynomolgus monkey [9]): 94900 ng·h/mL; remaining at 1 h, 5 µM (in vitro [11]): 98%; AUC (Cynomolgus monkey [10]): 49400 ng·h/mL
